Data reported in patent US11840686B2, “Modulation of prekallikrein (PKK) expression” (Ionis Pharmaceuticals, Inc., priority 2013, dated 2023).
Strand notation (5' to 3'): a small letter for the sugar, then the base; units joined by * are phosphorothioate-linked, units joined directly phosphodiester-linked; [ ] holds rarer units or linkages, { } end groups; capitals alone tell only the bases. e = 2'-O-(2-methoxyethyl) (MOE); [5mC] = 5-methylcytosine; d = 2'-deoxy (DNA)

How the values were obtained:
[1] = test system: human PKK mRNA; experiment: Dose-dependent antisense inhibition of human PKK in HepaRG cells, 0.19-5.00 uM (Example 5); format: cell-based; conditions: for percent inhibition of PKK mRNA, 0.19 μM: 0.19 μM antisense oligonucleotide; for percent inhibition of PKK mRNA, 0.56 μM: 0.56 μM antisense oligonucleotide; for percent inhibition of PKK mRNA, 1.67 μM: 1.67 μM antisense oligonucleotide; for percent inhibition of PKK mRNA, 5.00 μM: 5.00 μM antisense oligonucleotide
In short: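 PKK mRNA knockdown was measured by real-time PCR (primer probe set RTS3454) about 16 h after electroporating 20,000 HepaRG cells per well with oligonucleotide at four doses from 0.19 to 5.00 μM. Levels were adjusted to RIBOGREEN-measured total RNA, and IC50 values were calculated.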

[2] = test system: human PKK mRNA; experiment: Antisense inhibition of human PKK mRNA in HepaRG cells, 5,000 nM (Example 2); format: cell-based
In short: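 Chimeric MOE gapmers with full phosphorothioate backbones were tested once at 5,000 nM in electroporated HepaRG cells. After about 24 hours, quantitative PCR measured PKK mRNA relative to untreated control cells.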

[3] = HepaRG cells, electroporation, approximately 16 hours, Table 38
[4] = 4 point dose response, HepaRG cells, Table 38
[5] = HepaRG cells, electroporation with 5,000 nM antisense oligonucleotide, approximately 24 hours, PKK mRNA by RT-PCR (RTS3454), relative to untreated control cells, Table 5 experiment
[6] = HepaRG cells, electroporation, approximately 16 hours, Table 36
[7] = Table 13, human PKK mRNA in HepaRG cells, 5-10-5 gapmers
[8] = HepaRG cells, electroporation, approximately 16 hours, Table 40
[9] = 4 point dose response, HepaRG cells, Table 40
[10] = HepaRG cells, electroporation, 5,000 nM antisense oligonucleotide, approx. 24 hours, primer probe set RTS3454, relative to untreated control cells, Table 11
[11] = Table 34, HepaRG, electroporation, ~16 h
[12] = Table 34, PKK mRNA, HepaRG, electroporation, ~16 h
[13] = HepaRG cells, electroporation, approximately 16 hours, Table 37
[14] = 4 point dose response, HepaRG cells, Table 37
[15] = Table 9 experiment, HepaRG cells, 20,000 cells per well, electroporation with 5,000 nM antisense oligonucleotide, approx. 24 hours, PKK mRNA by RT-PCR (RTS3454), relative to untreated control cells
[16] = Table 10 experiment, HepaRG cells, 20,000 cells per well, electroporation with 5,000 nM antisense oligonucleotide, approx. 24 hours, PKK mRNA by RT-PCR (RTS3454), relative to untreated control cells
[17] = HepaRG cells, electroporation, approximately 16 hours, Table 41
[18] = 4 point dose response, HepaRG cells, Table 41

547294 (antisense e[5mC]*eT*e[5mC]*eA*eT*d[5mC]*dT*dG*dG*d[5mC]*dA*dG*dT*dA*dT*eT*eG*eG*eG*e[5mC]) [compound 547294]
percent inhibition of PKK at 0.19 μM [1, 3]: 28%
percent inhibition of PKK at 0.56 μM [1, 3]: 59%
percent inhibition of PKK at 1.67 μM [1, 3]: 87%
percent inhibition of PKK at 5.00 μM [1, 3]: 86%
IC50 [1, 4]: 400 nM
percent inhibition of PKK mRNA, 0.19 μM ([1]; HepaRG cells): 4%
percent inhibition of PKK mRNA, 0.56 μM ([1]; HepaRG cells): 70%
percent inhibition of PKK mRNA, 1.67 μM ([1]; HepaRG cells): 84%
percent inhibition of PKK mRNA, 5.00 μM ([1]; HepaRG cells): 91%
IC50 ([1]; HepaRG cells, 0.19-5.00 μM): 600 nM
% inhibition [2, 5]: 85%

546753 (e[5mC]*eT*eG*eG*e[5mC]*dT*d[5mC]*dA*d[5mC]*dT*dA*dT*dA*dG*dG*e[5mC]*e[5mC]*e[5mC]*e[5mC]*eA; antisense) [compound 546753]
percent inhibition of PKK at 0.19 μM [1, 6]: 28%
percent inhibition of PKK at 0.56 μM [1, 6]: 47%
percent inhibition of PKK at 1.67 μM [1, 6]: 83%
percent inhibition of PKK at 5.00 μM [1, 6]: 96%
IC50 ([1]; 4 point dose response, HepaRG cells, Table 36): 500 nM
percent inhibition of PKK mRNA, 0.19 μM ([1]; HepaRG cells): 17%
percent inhibition of PKK mRNA, 0.56 μM ([1]; HepaRG cells): 31%
percent inhibition of PKK mRNA, 1.67 μM ([1]; HepaRG cells): 70%
percent inhibition of PKK mRNA, 5.00 μM ([1]; HepaRG cells): 91%
IC50 ([1]; HepaRG cells, 0.19-5.00 μM): 900 nM
% inhibition [2, 7]: 91%

546980 (eA*eG*e[5mC]*e[5mC]*e[5mC]*dT*d[5mC]*dA*dA*dT*dT*dG*dT*dT*dG*e[5mC]*eT*eG*eG*eT; antisense) [compound 546980]
percent inhibition of PKK at 0.19 μM [1, 8]: 0%
percent inhibition of PKK at 0.56 μM [1, 8]: 18%
percent inhibition of PKK at 1.67 μM [1, 8]: 29%
percent inhibition of PKK at 5.00 μM [1, 8]: 80%
IC50 [1, 9]: 2200 nM
% inhibition ([2]; HepaRG cells, 5,000 nM antisense oligonucleotide, 5-10-5 gapmers, Table 16): 79%

547493 (antisense eT*e[5mC]*eT*eG*eA*dG*d[5mC]*dT*dT*dT*dT*d[5mC]*d[5mC]*dA*dT*e[5mC]*eA*e[5mC]*eT*eG) [compound 547493]
percent inhibition of PKK at 0.19 μM [1, 8]: 0%
percent inhibition of PKK at 0.56 μM [1, 8]: 26%
percent inhibition of PKK at 1.67 μM [1, 8]: 64%
percent inhibition of PKK at 5.00 μM [1, 8]: 77%
IC50 [1, 9]: 1300 nM
% inhibition [2, 10]: 72%

546158 (e[5mC]*eT*eT*eG*eG*dG*dT*dG*dG*dA*dA*dT*dG*dT*dG*e[5mC]*eA*e[5mC]*e[5mC]*eT; antisense) [compound 546158]
percent inhibition of PKK at 0.19 μM [1, 11]: 5%
percent inhibition of PKK at 0.56 μM [1, 11]: 45%
percent inhibition of PKK at 1.67 μM [1, 11]: 79%
percent inhibition of PKK at 5.00 μM [1, 11]: 83%
IC50 [1, 12]: 700 nM
% inhibition [2, 5]: 95%

546412 (eG*eG*e[5mC]*eT*eT*d[5mC]*dA*dA*dT*dA*dT*dT*dG*dA*d[5mC]*eT*eT*eT*eG*eG; antisense) [compound 546412]
percent inhibition of PKK at 0.19 μM [1, 3]: 0%
percent inhibition of PKK at 0.56 μM [1, 3]: 1%
percent inhibition of PKK at 1.67 μM [1, 3]: 61%
percent inhibition of PKK at 5.00 μM [1, 3]: 62%
IC50 [1, 4]: 2300 nM
% inhibition ([2]; HepaRG cells, electroporation, 5,000 nM antisense oligonucleotide, approx. 24 hours, primer probe set RTS3454, relative to untreated control cells, Table 12): 84%

547368 (eG*e[5mC]*eA*eT*e[5mC]*dT*dG*dG*dA*dG*dT*dG*dA*dG*dA*eA*e[5mC]*e[5mC]*e[5mC]*eT; antisense) [compound 547368]
percent inhibition of PKK at 0.19 μM [1, 13]: 0%
percent inhibition of PKK at 0.56 μM [1, 13]: 0%
percent inhibition of PKK at 1.67 μM [1, 13]: 31%
percent inhibition of PKK at 5.00 μM [1, 13]: 80%
IC50 [1, 14]: 2500 nM
% inhibition ([2]; Table 7, HepaRG cells, electroporation with 5,000 nM antisense oligonucleotide, approx. 24 hours, PKK mRNA by RT-PCR (RTS3454), relative to untreated control cells): 89%

547514 (antisense eA*eG*eA*eT*eG*d[5mC]*d[5mC]*dA*d[5mC]*dT*d[5mC]*dT*d[5mC]*d[5mC]*dA*eT*eG*e[5mC]*eT*eT) [compound 547514]
percent inhibition of PKK at 0.19 μM [1, 3]: 18%
percent inhibition of PKK at 0.56 μM [1, 3]: 8%
percent inhibition of PKK at 1.67 μM [1, 3]: 51%
percent inhibition of PKK at 5.00 μM [1, 3]: 80%
IC50 [1, 4]: 1900 nM
% inhibition [2, 10]: 85%

546304 (antisense e[5mC]*eT*eT*eT*eT*dA*dT*dT*dT*dG*dT*dG*dA*dG*dA*eA*eA*eG*eG*eT) [compound 546304]
percent inhibition of PKK at 0.19 μM [1, 13]: 0%
percent inhibition of PKK at 0.56 μM [1, 13]: 6%
percent inhibition of PKK at 1.67 μM [1, 13]: 51%
percent inhibition of PKK at 5.00 μM [1, 13]: 71%
IC50 [1, 14]: 2100 nM
% inhibition [2, 15]: 94%
% inhibition [2, 16]: 86%

547456 (antisense eG*e[5mC]*eG*eA*eT*dA*dT*d[5mC]*dA*dT*dG*dA*dT*dT*d[5mC]*e[5mC]*e[5mC]*eT*eT*e[5mC]) [compound 547456]
percent inhibition of PKK at 0.19 μM [1, 11]: 12%
percent inhibition of PKK at 0.56 μM [1, 11]: 67%
percent inhibition of PKK at 1.67 μM [1, 11]: 66%
percent inhibition of PKK at 5.00 μM [1, 11]: 80%
IC50 [1, 12]: 1000 nM
% inhibition [2, 15]: 89%
% inhibition [2, 16]: 96%

546827 (e[5mC]*eA*eG*eT*eA*dT*d[5mC]*dA*d[5mC]*dT*dG*dT*dA*d[5mC]*dT*eA*eG*eT*eT*eT; antisense) [compound 546827]
percent inhibition of PKK at 5.00 μM [1, 17]: 96%
percent inhibition of PKK at 0.19 0μM [1, 17]: 23%
percent inhibition of PKK at 0.56 0μM [1, 17]: 74%
percent inhibition of PKK at 1.67 1μM [1, 17]: 98%
IC50 [1, 18]: 400 nM
percent inhibition of PKK at 0.19 μM [1, 11]: 32%
percent inhibition of PKK at 0.56 μM [1, 11]: 70%
percent inhibition of PKK at 1.67 μM [1, 11]: 84%
percent inhibition of PKK at 5.00 μM [1, 11]: 90%
IC50 [1, 12]: 300 nM
% inhibition [2, 7]: 98%

547587 (e[5mC]*eT*eA*eT*eA*dA*d[5mC]*dA*dG*dT*dA*dT*d[5mC]*dA*d[5mC]*eT*eG*eT*e[5mC]*e[5mC]; antisense) [compound 547587]
percent inhibition of PKK at 5.00 μM [1, 17]: 97%
percent inhibition of PKK at 0.19 0μM [1, 17]: 38%
percent inhibition of PKK at 0.56 0μM [1, 17]: 64%
percent inhibition of PKK at 1.67 1μM [1, 17]: 91%
IC50 [1, 18]: 300 nM
percent inhibition of PKK at 0.19 μM [1, 11]: 20%
percent inhibition of PKK at 0.56 μM [1, 11]: 62%
percent inhibition of PKK at 1.67 μM [1, 11]: 84%
percent inhibition of PKK at 5.00 μM [1, 11]: 86%
IC50 [1, 12]: 500 nM
% inhibition ([2]; human PKK mRNA in HepaRG cells, 5-10-5 gapmers, Table 14): 96%

547277 (antisense e[5mC]*eA*e[5mC]*eA*eA*dT*dT*dG*d[5mC]*dT*dT*d[5mC]*dT*dT*dG*eG*eA*eG*eG*eT) [compound 547277]
percent inhibition of PKK at 0.19 μM [1, 8]: 2%
percent inhibition of PKK at 0.56 μM [1, 8]: 32%
percent inhibition of PKK at 1.67 μM [1, 8]: 34%
percent inhibition of PKK at 5.00 μM [1, 8]: 62%
IC50 [1, 9]: 2800 nM
% inhibition [2, 5]: 75%
